The values that follow come from patent publication US8044095B2, “Mixture of catechins or rather polyphenols extracted from chinese green tea or other vegetables for the prevention of prostate cancer and for the treatment of prostate hypertrophy (BPH)” (Genprofiler s.r.l., priority 2004, dated 2011).

The test system of data set [1] is prostate cancer in rats TRAMP. The settings on record: rat, in vivo. An excerpt: To show the validity of this hypothesis we worked on a preclinical animal model of […]. One of the more important preclinical models for the study of prostate tumor in vivo consists of transgenic rats TRAMP. These animals, when recombinant homozygotes develop prostate cancer with 100% probability in the adult stage. Progress of the illness recapitulates the essential phases of onset and progress of the human ailment. Indeed, it begins with lesions of the Prostate Intraepithelial Neoplasia (PIN) type to then give full blown neoplastic histological lesions, evolve subsequently towards androgen-resistant and aggressive phenotypes, then originating extraprostate and metastatic lesions in the terminal phase. […] Reduction of the onset of this neoplasia in treated animals was 80% (only 20 cases of neoplasia in 100 against 100 out of 100 in untreated animals).

Data set [2] relates to normal human prostate epithelial cells (EPIT). As to the kind of experiment: Dose-response growth study in normal human prostate epithelial cells (EPIT). It counts as cell-based. The note with it: increasing quantities of EGCG, cells in culture.
The conditions of data set [3]: in vivo; cited from earlier work.
Another data set deals with PNT1a. The data set is described as follows: Dose-response growth study in SV40-immortalized human prostate epithelial cells (PNT1a), compared with PC-3. It counts as cell-based. The note with it: PNT1a versus PC-3 cells.

In the case of catechins, in data set [1], the “adverse or collateral effect in vitro and in the animal model” value is “did not witness any adverse or collateral effect”.
For the molecule `O=C(O[C@@H]1Cc2c(O)cc(O)cc2O[C@@H]1c1cc(O)c(O)c(O)c1)c1cc(O)c(O)c(O)c1` [EGCG, (−)-epigallocatechina-3-gallato], the “growth of EPIT” value in data set [2] is “not modified significantly”. In data set [3], the half-life in plasma result was “over 5 hours”. Also, the “IC50 of EGCG in PNT1a relative to PC-3” value in the data set on PNT1a is on record as “very lower than in PC-3”.
